Broadly, the IC50 is the concentration that gives 50% inhibition.

For this test, the system named is JAK1-dependent STAT6 phosphorylation downstream of IL-13 stimulation in TF-1 human erythroleukemia cells. Description: cells. The note with it: TF-1, read-out: IL-13-pSTAT6 IC50.
As for `CN1CCN(C(=O)C2CN(C(=O)c3ccc(Nc4nc5c(N6CCC(O)(c7ccc(Cl)cc7)CC6)cccn5n4)cc3)C2)CC1` [Example 1-165, [4-[[8-[4-(4-chlorophenyl)-4-hydroxy-1-piperidyl]-[1,2,4]triazolo[1,5-a]pyridin-2-yl]amino]phenyl]-[3-(4-methylpiperazine-1-carbonyl)azetidin-1-yl]methanone], the IC50 amounted to 25.1 nM.

As for `O=C(c1ccc(Nc2nc3c(N4CCC(O)(c5ccc(Cl)cc5)CC4)cccn3n2)cc1)N1CCN2CCCC2C1` (stereo not drawn) [Example 1-168, 3,4,6,7,8,8a-hexahydro-1H-pyrrolo[1,2-a]pyrazin-2-yl-[4-[[8-[4-(4-chlorophenyl)-4-hydroxy-1-piperidyl]-[1,2,4]triazolo[1,5-a]pyridin-2-yl]amino]phenyl] methanone], the IC50 was 22.6 nM.

Regarding `O=C(NC1CCNC1)c1ccc(Nc2nc3c(N4CCC(O)(c5ccc(Cl)cc5)CC4)cccn3n2)cc1` (stereo not drawn) [Example 1-176, 4-[[8-[4-(4-chlorophenyl)-4-hydroxy-1-piperidyl]-[1,2,4]triazolo[1,5-a]pyridin-2-yl]amino]-N-pyrrolidin-3-yl-benzamide], the IC50 was determined as 279 nM.

For `O=C(NC1CCCNC1)c1ccc(Nc2nc3c(N4CCC(O)(c5ccc(Cl)cc5)CC4)cccn3n2)cc1` (stereo not drawn) [Example 1-179, 4-[[8-[4-(4-chlorophenyl)-4-hydroxy-1-piperidyl]-[1,2,4]triazolo[1,5-a]pyridin-2-yl]amino]-N-(3-piperidyl)benzamide], the half-inhibitory concentration (IC50) worked out at 84.3 nM.

For `O=C(NCC1CCNC1)c1ccc(Nc2nc3c(N4CCC(O)(c5ccc(Cl)cc5)CC4)cccn3n2)cc1` (stereo not drawn) [Example 1-180, 4-[[8-[4-(4-chlorophenyl)-4-hydroxy-1-piperidyl]-[1,2,4]triazolo[1,5-a]pyridin-2-yl]amino]-N-(pyrrolidin-3-ylmethyl)benzamide], the IC50 turned out to be 322 nM.

With `O=C(NC1CCNCC1)c1ccc(Nc2nc3c(N4CCC(O)(c5ccc(Cl)cc5)CC4)cccn3n2)cc1` [Example 1-181, 4-[[8-[4-(4-chlorophenyl)-4-hydroxy-1-piperidyl]-[1,2,4]triazolo[1,5-a]pyridin-2-yl]amino]-N-(4-piperidyl)benzamide], the IC50 was 181 nM.

With `O=C(NCC1CCCNC1)c1ccc(Nc2nc3c(N4CCC(O)(c5ccc(Cl)cc5)CC4)cccn3n2)cc1` (stereo not drawn) [Example 1-183, 4-[[8-[4-(4-chlorophenyl)-4-hydroxy-1-piperidyl]-[1,2,4]triazolo[1,5-a]pyridin-2-yl]amino]-N-(3-piperidylmethyl) benzamide], the IC50 was 536 nM.

As to `O=C(NCC1CCNCC1)c1ccc(Nc2nc3c(N4CCC(O)(c5ccc(Cl)cc5)CC4)cccn3n2)cc1` [Example 1-184, 4-[[8-[4-(4-chlorophenyl)-4-hydroxy-1-piperidyl]-[1,2,4]triazolo[1,5-a]pyridin-2-yl]amino]-N-(4-piperidylmethyl)], the IC50 amounted to 127 nM.

Consider `O=C(NCCN1CCNCC1)c1ccc(Nc2nc3c(N4CCC(O)(c5ccc(Cl)cc5)CC4)cccn3n2)cc1` [Example 1-187], for which the half-maximal inhibitory concentration (IC50) was found to be 462 nM.

`O=C(NCC1CNCCO1)c1ccc(Nc2nc3c(N4CCC(O)(c5ccc(Cl)cc5)CC4)cccn3n2)cc1` (stereo not drawn) [Example 1-188, 4-[[8-[4-(4-chlorophenyl)-4-hydroxy-1-piperidyl]-[1,2,4]triazolo[1,5-a]pyridin-2-yl]amino]-N-(morpholin-2-ylmethyl)benzamide]: the IC50 turned out to be 34.7 nM.

For `NCC1CCN(C(=O)c2ccc(Nc3nc4c(N5CCC(O)(c6ccc(Cl)cc6)CC5)cccn4n3)cc2)CC1` [Example 1-193, [4-(aminomethyl)-1-piperidyl]-[4-[[8-[4-(4-chlorophenyl)-4-hydroxy-1-piperidyl]-[1,2,4]triazolo[1,5-a]pyridin-2-yl]amino]phenyl] methanone], the IC50 was found to be 249 nM.

`O=C(c1ccc(Nc2nc3c(N4CCC(O)(c5ccc(Cl)cc5)CC4)cccn3n2)cc1)N1CCNCC1CO` (stereo not drawn) [Example 1-196, [4-[[8-[4-(4-chlorophenyl)-4-hydroxy-1-piperidyl]-[1,2,4]triazolo[1,5-a]pyridin-2-yl]amino]phenyl]-[2-(hydroxymethyl)piperazin-1-yl]methanone]: the IC50 came out at 53.1 nM.

As to `O=C(c1ccc(Nc2nc3c(N4CCC(O)(c5ccc(Cl)cc5)CC4)cccn3n2)cc1)N1CC2CNCC2C1` (stereo not drawn) [Example 1-197, 2,3,3a,4,6,6a-hexahydro-1H-pyrrolo[3,4-c]pyrrol-5-yl-[4-[[8-[4-(4-chlorophenyl)-4-hydroxy-1-piperidyl]-[1,2,4]triazolo[1,5-a]pyridin-2-yl]amino]phenyl] methanone], the IC50 came to 158 nM.

Take `O=C(N[C@H]1CCCNC1)c1ccc(Nc2nc3c(N4CCC(O)(c5ccc(Cl)cc5)CC4)cccn3n2)cc1` [Example 1-198, 4-[[8-[4-(4-chlorophenyl)-4-hydroxy-1-piperidyl]-[1,2,4]triazolo[1,5-a]pyridin-2-yl]amino]-N-[(3S)-3-piperidyl]benzamide]: the 50% inhibitory concentration (IC50) stood at 68.5 nM.

Consider `O=C(c1ccc(Nc2nc3c(N4CCC(O)(c5ccc(Cl)cc5)CC4)cccn3n2)cc1)N1CC2(CCNCC2)C1` [Example 1-199, [4-[[8-[4-(4-chlorophenyl)-4-hydroxy-1-piperidyl]-[1,2,4]triazolo[1,5-a]pyridin-2-yl]amino]phenyl]-(2,7-diazaspiro[3.5]nonan-2-yl)methanone], for which the IC50 came to 106 nM.

As to `O=C(c1ccc(Nc2nc3c(N4CCC(O)(c5ccc(Cl)cc5)CC4)cccn3n2)cc1)N1CC2(CNC2)C1` [Example 1-203, [4-[[8-[4-(4-chlorophenyl)-4-hydroxy-1-piperidyl]-[1,2,4]triazolo[1,5-a]pyridin-2-yl]amino]phenyl]-(2,6-diazaspiro[3.3]heptan-2-yl)methanone], the half-inhibitory concentration (IC50) was 342 nM.

With `O=C(c1ccc(Nc2nc3c(N4CCC(O)(c5ccc(Cl)cc5)CC4)cccn3n2)cc1)N1CCC2(CNC2)C1` [Example 1-205, [4-[[8-[4-(4-chlorophenyl)-4-hydroxy-1-piperidyl]-[1,2,4]triazolo[1,5-a]pyridin-2-yl]amino]phenyl]-(2,6-diazaspiro[3.4]octan-6-yl)methanone], the concentration for half-maximal inhibition (IC50) was found to be 522 nM.

On to `O=C(c1ccc(Nc2nc3c(N4CCC(O)(c5ccc(Cl)cc5)CC4)cccn3n2)cc1)N1CCC2(CCNC2)C1` (stereo not drawn) [Example 1-207, [4-[[8-[4-(4-chlorophenyl)-4-hydroxy-1-piperidyl]-[1,2,4]triazolo[1,5-a]pyridin-2-yl]amino]phenyl]-(2,7-diazaspiro[4.4]nonan-2-yl)methanone], for which the IC50 was 192 nM.

On to `O=C(c1ccc(Nc2nc3c(N4CCC(O)(c5ccc(Cl)cc5)CC4)cccn3n2)cc1)N1CC2(CCCNC2)C1` [Example 1-210, [4-[[8-[4-(4-chlorophenyl)-4-hydroxy-1-piperidyl]-[1,2,4]triazolo[1,5-a]pyridin-2-yl]amino]phenyl]-(2,8-diazaspiro[3.5]nonan-2-yl)methanone], for which the IC50 was determined as 43.5 nM.

Regarding `O=C(c1ccc(Nc2nc3c(N4CCC(O)(c5ccc(Cl)cc5)CC4)cccn3n2)cc1)N1CCC2(CCCNC2)C1` (stereo not drawn) [Example 1-212, [4-[[8-[4-(4-chlorophenyl)-4-hydroxy-1-piperidyl]-[1,2,4]triazolo[1,5-a]pyridin-2-yl]amino]phenyl]-(2,9-diazaspiro[4.5]decan-2-yl)methanone], the IC50 was 196 nM.

Take `O=C(c1ccc(Nc2nc3c(N4CCC(O)(c5ccc(Cl)cc5)CC4)cccn3n2)cc1)N1CCC2(CCNCC2)CC1` [Example 1-218, [4-[[8-[4-(4-chlorophenyl)-4-hydroxy-1-piperidyl]-[1,2,4]triazolo[1,5-a]pyridin-2-yl]amino]phenyl]-(3,9-diazaspiro[5.5]undecan-3-yl)methanone]: the 50% inhibitory concentration (IC50) stood at 165 nM.

Regarding `O=C(NCC1COC2(CCNCC2)C1)c1ccc(Nc2nc3c(N4CCC(O)(c5ccc(Cl)cc5)CC4)cccn3n2)cc1` (stereo not drawn) [Example 1-220, 4-[[8-[4-(4-chlorophenyl)-4-hydroxy-1-piperidyl]-[1,2,4]triazolo[1,5-a]pyridin-2-yl]amino]-N-(1-oxa-8-azaspiro[4.5]decan-3-ylmethyl)benzamide], the IC50 amounted to 637 nM.

In the case of `O=C(NC1COC2(CCNCC2)C1)c1ccc(Nc2nc3c(N4CCC(O)(c5ccc(Cl)cc5)CC4)cccn3n2)cc1` (stereo not drawn) [Example 1-221, 4-[[8-[4-(4-chlorophenyl)-4-hydroxy-1-piperidyl]-[1,2,4]triazolo[1,5-a]pyridin-2-yl]amino]-N-(1-oxa-8-azaspiro[4.5]decan-3-yl)benzamide], the IC50 came to 866 nM.

Regarding `O=C(c1ccc(Nc2nc3c(N4CCC(O)(c5ccc(Cl)cc5)CC4)cccn3n2)cc1)N1CC2(CCNC2)C1` [Example 1-224, [4-[[8-[4-(4-chlorophenyl)-4-hydroxy-1-piperidyl]-[1,2,4]triazolo[1,5-a]pyridin-2-yl]amino]phenyl]-(2,7-diazaspiro[3.4]octan-2-yl)methanone], the IC50 stood at 111 nM.

Consider `O=C(c1ccc(Nc2nc3c(N4CCC(O)(c5ccc(Cl)cc5)CC4)cccn3n2)cc1)N1CCOC2(CCCNC2)C1` (stereo not drawn) [Example 1-225, [4-[[8-[4-(4-chlorophenyl)-4-hydroxy-1-piperidyl]-[1,2,4]triazolo[1,5-a]pyridin-2-yl]amino]phenyl]-(1-oxa-4,8-diazaspiro[5.5]undecan-4-yl)methanone], for which the concentration for half-maximal inhibition (IC50) was 30.8 nM.

Regarding `O=C(c1ccc(Nc2nc3c(N4CCC(O)(c5ccc(Cl)cc5)CC4)cccn3n2)cc1)N1CCC2(CCCN2)CC1` [Example 1-226, [4-[[8-[4-(4-chlorophenyl)-4-hydroxy-1-piperidyl]-[1,2,4]triazolo[1,5-a]pyridin-2-yl]amino]phenyl]-(1,8-diazaspiro[4.5]decan-8-yl)methanone], the concentration for half-maximal inhibition (IC50) came to 79.4 nM.

Turning to `O=C(c1ccc(Nc2nc3c(N4CCC(O)(c5ccc(Cl)cc5)CC4)cccn3n2)cc1)N1CCC2(CC1)CNCCO2` [Example 1-230, [4-[[8-[4-(4-chlorophenyl)-4-hydroxy-1-piperidyl]-[1,2,4]triazolo[1,5-a]pyridin-2-yl]amino]phenyl]-(1-oxa-4,9-diazaspiro[5.5]undecan-9-yl)methanone], the IC50 stood at 58.1 nM.

The values above are taken from patent US9873709B2 (priority 2013, dated 2018).
